ChEMBL document CHEMBL5729561, “Compounds and uses thereof” (2023)

Experiment: On day 0 cells were seeded in 30 μL media into each well of 384-well cell culture plates. The seeding density was 8000 cells/well. On day 1, cells were treated with 30 nL DMSO or 30 nL of 3-fold serially DMSO-diluted compounds (10 points in duplicates with 1 μM as final top dose). Subsequently plates were incubated for 6 hours in a standard tissue culture incubator and equilibrated at room temperature for 15 minutes. Nanoluciferase activity was measured by adding 15 μL of freshly prepared Nano-Glo Luciferase Assay Reagent (Promega N1130), shaking the plates for 10 minutes and reading the bioluminescence using an EnVision reader.
Type: cell-based

Row | Structure (SMILES) | IC50
1 | COc1cc(-c2cn(C)c(=O)c3cnccc23)cc(OC)c1CN1CCC(OCc2cn(CCCCCOc3ccc4c(c3)C(=O)N(C3CCC(=O)NC3=O)C4=O)nn2)CC1 (stereo not drawn) | < 10 nM
2 | COc1cc(-c2cn(C)c(=O)c3cnccc23)cc(OC)c1CN1CC(C(=O)NCCCCCCCCNc2cccc3c2C(=O)N(C2CCC(=O)NC2=O)C3=O)C1 (stereo not drawn) | < 10 nM
3 | COc1cc(-c2cn(C)c(=O)c3cnccc23)cc(OC)c1CN1CCC(OC2CCN(C(=O)CCOCCOc3ccc4c(c3)C(=O)N(C3CCC(=O)NC3=O)C4=O)CC2)CC1 (stereo not drawn) | < 10 nM
4 | COc1cc(-c2cn(C)c(=O)c3cnccc23)cc(OC)c1CN1CC(C(=O)NCCOCCOCCNc2cccc3c2C(=O)N(C2CCC(=O)NC2=O)C3=O)C1 (stereo not drawn) | in the range around 55 nM
5 | COc1cc(-c2cn(C)c(=O)c3cnccc23)cc(OC)c1CN1CCC2(C[C@@H]2NC(=O)CCOCCOc2cccc3c2C(=O)N(C2CCC(=O)NC2=O)C3=O)C1 (stereo partly drawn) | in the range around 550 nM
6 | COc1cc(-c2cn(C)c(=O)c3cnccc23)cc(OC)c1CN(C)C12CC(C(=O)NCCCCCNc3cccc4c3C(=O)N(C3CCC(=O)NC3=O)C4=O)(C1)C2 (stereo not drawn) | < 10 nM
7 | COc1cc(-c2cn(C)c(=O)c3cnccc23)cc(OC)c1CN1CC(C(=O)NCCCCCNc2cccc3c2C(=O)N(C2CCC(=O)NC2=O)C3=O)C1 (stereo not drawn) | < 10 nM
8 | COc1cc(-c2cn(C)c(=O)c3cnccc23)cc(OC)c1CN1CCN(C(=O)C2CC2CNC(=O)COc2cccc3c2C(=O)N(C2CCC(=O)NC2=O)C3=O)CC1 (stereo not drawn) | in the range around 550 nM
9 | COc1cc(-c2cn(C)c(=O)c3cnccc23)cc(OC)c1CN(C)CC12CC(NC(=O)CCCCOc3cccc4c3C(=O)N(C3CCC(=O)NC3=O)C4=O)(C1)C2 (stereo not drawn) | < 10 nM
10 | COc1cc(-c2cn(C)c(=O)c3cnccc23)cc(OC)c1CN1CCN(CCCOc2ccc3c(c2)C(=O)N(C2CCC(=O)NC2=O)C3=O)CC1 (stereo not drawn) | < 10 nM
11 | COc1cc(-c2cn(C)c(=O)c3cnccc23)cc(OC)c1CN(C)CCc1cn(-c2ccc3c(c2)C(=O)N(C2CCC(=O)NC2=O)C3=O)nn1 (stereo not drawn) | in the range around 55 nM
12 | COc1cc(-c2cn(C)c(=O)c3cnccc23)cc(OC)c1CN(C)CC12CC(NC(=O)CCOCCOCCNc3cccc4c3C(=O)N(C3CCC(=O)NC3=O)C4=O)(C1)C2 (stereo not drawn) | in the range around 550 nM
13 | COc1cc(-c2cn(C)c(=O)c3cnccc23)cc(OC)c1CN1CCC(OC2CCN(C(=O)CCOCCOc3cccc4c3C(=O)N(C3CCC(=O)NC3=O)C4=O)C2)CC1 (stereo not drawn) | in the range around 55 nM
14 | COc1cc(-c2cn(C)c(=O)c3cnccc23)cc(OC)c1CN(C)C1CCC2CN(C(=O)CCOCCOc3cccc4c3C(=O)N(C3CCC(=O)NC3=O)C4=O)CC21 (stereo not drawn) | in the range around 55 nM
15 | COc1cc(-c2cn(C)c(=O)c3cnccc23)cc(OC)c1CN1CCC2(CC1)CN(C(=O)CCCCOc1cccc3c1C(=O)N(C1CCC(=O)NC1=O)C3=O)CCO2 (stereo not drawn) | < 10 nM
16 | COc1cc(-c2cn(C)c(=O)c3cnccc23)cc(OC)c1CN1CC(OCc2cn(CCCCOc3ccc4c(c3)C(=O)N(C3CCC(=O)NC3=O)C4=O)nn2)C1 (stereo not drawn) | in the range around 55 nM
17 | COc1cc(-c2cn(C)c(=O)c3cnccc23)cc(OC)c1CN1CCC2(CC1)CC(NC(=O)CCOCCOc1ccc3c(c1)C(=O)N(C1CCC(=O)NC1=O)C3=O)C2 (stereo not drawn) | in the range around 55 nM
18 | COc1cc(-c2cn(C)c(=O)c3cnccc23)cc(OC)c1CN(C)C12CC(C(=O)NCCOCCOCCNc3cccc4c3C(=O)N(C3CCC(=O)NC3=O)C4=O)(C1)C2 (stereo not drawn) | < 10 nM
19 | COc1cc(-c2cn(C)c(=O)c3cnccc23)cc(OC)c1CN1CCC(OCc2cn(CCCCCOc3ccc4c(c3)C(=O)N(C3CCC(=O)NC3=O)C4=O)nn2)C1 (stereo not drawn) | < 10 nM
20 | COc1cc(-c2cn(C)c(=O)c3cnccc23)cc(OC)c1CN(C)Cc1cn(CCCCOc2ccc3c(c2)C(=O)N(C2CCC(=O)NC2=O)C3=O)nn1 (stereo not drawn) | in the range around 55 nM
21 | COc1cc(-c2cn(C)c(=O)c3cnccc23)cc(OC)c1CN(C)CC12CC(C(=O)NCCOCCOCCNc3cccc4c3C(=O)N(C3CCC(=O)NC3=O)C4=O)(C1)C2 (stereo not drawn) | in the range around 550 nM
22 | COc1cc(-c2cn(C)c(=O)c3cnccc23)cc(OC)c1CN1CC(C(=O)NCCCCCCCCNc2cccc3c2C(=O)N(C2CCC(=O)N(C)C2=O)C3=O)C1 (stereo not drawn) | > 1000 nM
23 | COc1cc(-c2cn(C)c(=O)c3cnccc23)cc(OC)c1CN1CCC2(CC1)CN(C(=O)CCCOc1cccc3c1C(=O)N(C1CCC(=O)NC1=O)C3=O)CCO2 (stereo not drawn) | < 10 nM
24 | COc1cc(-c2cn(C)c(=O)c3cnccc23)cc(OC)c1CN1CC[C@H]1CN(C)Cc1cccc2c1C(=O)N(C1CCC(=O)NC1=O)C2=O (stereo partly drawn) | in the range around 55 nM
25 | COc1cc(-c2cn(C)c(=O)c3cnccc23)cc(OC)c1CN1CC(OCc2cn(CCOCCOc3ccc4c(c3)C(=O)N(C3CCC(=O)NC3=O)C4=O)nn2)C1 (stereo not drawn) | in the range around 550 nM
26 | COc1cc(-c2cn(C)c(=O)c3cnccc23)cc(OC)c1CN1CCC2(CCN(C(=O)CCOCCOc3cccc4c3C(=O)N(C3CCC(=O)NC3=O)C4=O)C2)C1 (stereo not drawn) | < 10 nM
27 | COc1cc(-c2cn(C)c(=O)c3cnccc23)cc(OC)c1CN(C)C12CC(NC(=O)CCOCCOCCNc3cccc4c3C(=O)N(C3CCC(=O)NC3=O)C4=O)(C1)C2 (stereo not drawn) | < 10 nM

Row | Structure (SMILES) | IC50
28 | COc1cc(-c2cn(C)c(=O)c3cnccc23)cc(OC)c1CN1CCCC(OCc2cn(CCOCCOc3ccc4c(c3)C(=O)N(C3CCC(=O)NC3=O)C4=O)nn2)C1 (stereo not drawn) | in the range around 55 nM
29 | COc1cc(-c2cn(C)c(=O)c3cnccc23)cc(OC)c1CN1CCC2(CCN(C(=O)CCOCCOc3ccc4c(c3)C(=O)N(C3CCC(=O)NC3=O)C4=O)CC2)C1 (stereo not drawn) | in the range around 55 nM
30 | COc1cc(-c2cn(C)c(=O)c3cnccc23)cc(OC)c1CN(C)Cc1cn(-c2ccc3c(c2)C(=O)N(C2CCC(=O)NC2=O)C3=O)nn1 (stereo not drawn) | in the range around 550 nM
31 | COc1cc(-c2cn(C)c(=O)c3cnccc23)cc(OC)c1CN1CCC(COC2CCN(C(=O)CCOCCOc3cccc4c3C(=O)N(C3CCC(=O)NC3=O)C4=O)C2)CC1 (stereo not drawn) | in the range around 55 nM
32 | COc1cc(-c2cn(C)c(=O)c3cc(O)ccc23)cc(OC)c1CN1CCC2(CC1)CN(C(=O)CCCOc1cccc3c1C(=O)N(C1CCC(=O)NC1=O)C3=O)CCO2 (stereo not drawn) | in the range around 55 nM
33 | COc1cc(-c2cn(C)c(=O)c3cnccc23)cc(OC)c1CN(C)C1CC2CC1CN2C(=O)CCOCCOc1cccc2c1C(=O)N(C1CCC(=O)NC1=O)C2=O (stereo not drawn) | in the range around 55 nM
34 | COc1cc(-c2cn(C)c(=O)c3cnccc23)cc(OC)c1CN(C)CC1CC2(CCN(C(=O)CCOCCOc3cccc4c3C(=O)N(C3CCC(=O)NC3=O)C4=O)CC2)O1 (stereo not drawn) | in the range around 55 nM
35 | COc1cc(-c2cn(C)c(=O)c3cnccc23)cc(OC)c1CN1CC[C@H]1C(=O)NCCCCCCCCNc1cccc2c1C(=O)N(C1CCC(=O)NC1=O)C2=O (stereo partly drawn) | < 10 nM
36 | COc1cc(-c2cn(C)c(=O)c3cnccc23)cc(OC)c1CN1CCC2(C1)CN(C(=O)CCOCCOc1ccc3c(c1)C(=O)N(C1CCC(=O)NC1=O)C3=O)C2 (stereo not drawn) | in the range around 55 nM
37 | COc1cc(-c2cn(C)c(=O)c3cnccc23)cc(OC)c1CN(C)C1CC2CC1CN2C(=O)CCOCCOc1ccc2c(c1)C(=O)N(C1CCC(=O)NC1=O)C2=O (stereo not drawn) | < 10 nM
38 | COc1cc(-c2cn(C)c(=O)c3cnccc23)cc(OC)c1CN1CC(OCc2cn(CCCOc3ccc4c(c3)C(=O)N(C3CCC(=O)NC3=O)C4=O)nn2)C1 (stereo not drawn) | in the range around 550 nM
39 | COc1cc(-c2cn(C)c(=O)c3cnccc23)cc(OC)c1CNCCCN1CC(Oc2ccc3c(c2)C(=O)N(C2CCC(=O)NC2=O)C3=O)C1 (stereo not drawn) | in the range around 55 nM
40 | COc1cc(-c2cn(C)c(=O)c3cnccc23)cc(OC)c1CN(C)CC1CC2(CCN(C(=O)CCOCCOc3ccc4c(c3)C(=O)N(C3CCC(=O)NC3=O)C4=O)CC2)CO1 (stereo not drawn) | < 10 nM
41 | COc1cc(-c2cn(C)c(=O)c3cnccc23)cc(OC)c1CN(C)CC1CC2(CCN(C(=O)CCOCCOc3ccc4c(c3)C(=O)N(C3CCC(=O)NC3=O)C4=O)CC2)O1 (stereo not drawn) | < 10 nM
42 | COc1cc(-c2cn(C)c(=O)c3cnccc23)cc(OC)c1ON1CCC2(CCN(C(=O)CCOCCOc3cccc4c3C(=O)N(C3CCC(=O)NC3=O)C4=O)CC2)C1 (stereo not drawn) | < 10 nM
43 | COc1cc(-c2cn(C)c(=O)c3cnccc23)cc(OC)c1CN1CC2(C1)CN(C(=O)COc1cccc3c1C(=O)N(C1CCC(=O)NC1=O)C3=O)C2 (stereo not drawn) | in the range around 550 nM
44 | COc1cc(-c2cn(C)c(=O)c3cnccc23)cc(OC)c1CN1CCC12CCN(C(=O)CCOCCOc1ccc3c(c1)C(=O)N(C1CCC(=O)NC1=O)C3=O)C2 (stereo not drawn) | in the range around 550 nM
45 | COc1cc(-c2cn(C)c(=O)c3cnccc23)cc(OC)c1CN1CCC(OCc2cn(-c3ccc4c(c3)C(=O)N(C3CCC(=O)NC3=O)C4=O)nn2)C1 (stereo not drawn) | in the range around 55 nM
46 | COc1cc(-c2cn(C)c(=O)c3cnccc23)cc(OC)c1CN1CCC(OC2CCN(C(=O)CCOCCOc3ccc4c(c3)C(=O)N(C3CCC(=O)NC3=O)C4=O)C2)CC1 (stereo not drawn) | < 10 nM
47 | COc1cc(-c2cn(C)c(=O)c3cnccc23)cc(OC)c1CN1CC2C1CCN2C(=O)CCOCCOc1cccc2c1C(=O)N(C1CCC(=O)NC1=O)C2=O (stereo not drawn) | < 10 nM
48 | COc1cc(-c2cn(C)c(=O)c3cnccc23)cc(OC)c1CN1CCC(OCc2cn(CCOCCOc3ccc4c(c3)C(=O)N(C3CCC(=O)NC3=O)C4=O)nn2)CC1 (stereo not drawn) | in the range around 55 nM
49 | COc1cc(-c2cn(C)c(=O)c3cnccc23)cc(OC)c1CN1CCC2(C1)CN(C(=O)CCOCCOc1cccc3c1C(=O)N(C1CCC(=O)NC1=O)C3=O)C2 (stereo not drawn) | in the range around 55 nM
50 | COc1cc(-c2cn(C)c(=O)c3cnccc23)cc(OC)c1CN1CCC(C2CCN(C(=O)CCOCCOc3ccc4c(c3)C(=O)N(C3CCC(=O)NC3=O)C4=O)C2)CC1 (stereo not drawn) | < 10 nM
51 | COc1cc(-c2cn(C)c(=O)c3cnccc23)cc(OC)c1CN1CCC2(CC1)CN(C(=O)COc1cccc3c1C(=O)N(C1CCC(=O)NC1=O)C3=O)CCO2 (stereo not drawn) | in the range around 55 nM
52 | COc1cc(-c2cn(C)c(=O)c3cnccc23)cc(OC)c1CN1CCC2(CC1)CN(C(=O)COc1ccc3c(c1)C(=O)N(C1CCC(=O)NC1=O)C3=O)CCO2 (stereo not drawn) | in the range around 550 nM
53 | COc1cc(-c2cn(C)c(=O)c3cnccc23)cc(OC)c1CN(C)NC(=O)CCCCC(=O)NC12CC(Nc3cccc4c3C(=O)N(C3CCC(=O)NC3=O)C4=O)(C1)C2 (stereo not drawn) | < 10 nM
